The assay deals with mGluR5 (Homo sapiens, UniProt P41594). Kind of assay: mGluR5 positive allosteric modulator (PAM) functional assay. Type of assay: cell-based.

These results are taken from patent US10533000B2, “Metabotrophic glutamate receptor 5 modulators and methods of use thereof” (Sunovion Pharmaceuticals, Inc., priority 2011, dated 2020).

One may read the EC50 as the concentration needed to bring the measured effect to its halfway point. A high value points to weaker potency.

A value given as a limit tells only on which side of the number the result lay.

Chain of mGluR5 (P41594 21-1212): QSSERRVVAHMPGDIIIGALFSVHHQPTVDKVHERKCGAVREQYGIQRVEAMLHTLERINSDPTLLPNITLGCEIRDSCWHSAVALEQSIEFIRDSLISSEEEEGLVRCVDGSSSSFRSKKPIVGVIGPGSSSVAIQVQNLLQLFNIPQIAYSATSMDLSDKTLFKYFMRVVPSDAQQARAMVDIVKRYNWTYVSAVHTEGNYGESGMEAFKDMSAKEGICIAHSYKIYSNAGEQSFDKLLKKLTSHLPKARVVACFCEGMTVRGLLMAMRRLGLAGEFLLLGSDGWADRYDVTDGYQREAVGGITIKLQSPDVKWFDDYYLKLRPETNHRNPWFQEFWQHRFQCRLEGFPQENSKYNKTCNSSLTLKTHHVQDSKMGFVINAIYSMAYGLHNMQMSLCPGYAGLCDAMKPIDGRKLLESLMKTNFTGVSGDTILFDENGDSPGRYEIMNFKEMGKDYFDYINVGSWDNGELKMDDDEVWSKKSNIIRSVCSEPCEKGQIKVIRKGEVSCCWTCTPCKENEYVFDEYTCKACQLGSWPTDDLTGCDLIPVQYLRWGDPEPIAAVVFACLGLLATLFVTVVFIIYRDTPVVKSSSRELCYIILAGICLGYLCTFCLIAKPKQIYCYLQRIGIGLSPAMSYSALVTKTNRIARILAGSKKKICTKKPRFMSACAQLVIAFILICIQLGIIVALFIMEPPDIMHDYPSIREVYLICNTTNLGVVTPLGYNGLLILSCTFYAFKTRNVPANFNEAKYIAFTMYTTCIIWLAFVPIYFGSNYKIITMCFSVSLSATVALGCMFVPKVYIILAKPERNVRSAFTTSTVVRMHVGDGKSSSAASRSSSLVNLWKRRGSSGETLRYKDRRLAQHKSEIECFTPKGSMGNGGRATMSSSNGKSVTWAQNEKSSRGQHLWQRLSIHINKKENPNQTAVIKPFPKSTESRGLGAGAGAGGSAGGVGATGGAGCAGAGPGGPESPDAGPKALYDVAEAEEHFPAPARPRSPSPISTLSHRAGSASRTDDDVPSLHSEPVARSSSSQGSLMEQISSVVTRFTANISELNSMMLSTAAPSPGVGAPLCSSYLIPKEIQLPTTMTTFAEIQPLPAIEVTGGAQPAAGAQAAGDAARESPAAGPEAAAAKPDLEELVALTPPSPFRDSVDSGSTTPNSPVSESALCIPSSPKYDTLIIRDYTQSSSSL

Take `CC(c1nc(-c2ccc(C#Cc3cccc(F)c3)cc2)no1)N(C)C1CC1` (centres unmarked) [Compound 54, N-(1-(3-(4-((3-fluorophenyl)ethynyl)phenyl)-1,2,4-oxadiazol-5-yl)ethyl)-N-methylcyclopropanamine]: the EC50 is 300 to 1000 nM.
For the molecule `CN1CCC1c1nc(-c2ccc(C#Cc3cccc(F)c3)cn2)no1` (centres unmarked) [Compound 101, 3-(5-((3-fluorophenyl)ethynyl)pyridin-2-yl)-5-(1-methylazetidin-2-yl)-1,2,4-oxadiazole], the EC50 lay within 30 to 100 nM.
`Fc1cccc(C#Cc2ccc(-c3noc(C4COCCN4)n3)nc2)c1` (centres unmarked) [Compound 98] yielded an EC50 of 30 to 100 nM.
Next, `CCC(C)c1nc(-c2ccc(C#Cc3ccncc3)nc2)no1` (centres unmarked) [Compound 90, 5-(sec-butyl)-3-(6-(pyridin-4-ylethynyl)pyridin-3-yl)-1,2,4-oxadiazole]: ≤ 30 nM.
Consider `COC(C)c1nc(-c2ccc(C#Cc3cccc(F)c3)cc2)no1` (centres unmarked) [Compound 58, 3-(4-((3-fluorophenyl)ethynyl)phenyl)-5-(1-methoxyethyl)-1,2,4-oxadiazole], for which the EC50 was in the range of 100 to 300 nM.
